Test system: A549 cells in A549-U937 3-D co-culture
Experiment: Viability of A549 epithelial cells in the three-dimensional A549-U937 co-culture after exposure to 3-oxo-C12 HSL
Type: cell-based, human
Details: A549 co-cultured three-dimensionally with U937, 20 hour exposure
Procedure: A549 three-dimensional aggregates were grown as described above and after 9 days of three-dimensional A549 cultivation, undifferentiated U937 monocytes were added to the HARV as follows. three-dimensional A549 cells were counted by trypsinization of an aggregate sample and U937 cells (grown in T75 flasks) were added in a 1:1 ratio to the three-dimensional A549 culture. A549 and U937 cells were co-cultured in the HARV at 20 rpm for 72 h. After addition of the monocytes, culture medium was changed after 48 hours of co-cultivation where after medium was replenished every 24 hours.
Assessment of live-, apoptotic-, and necrotic cell populations was performed with the annexin V-propidium iodide (PI) kit for flow cytometry analysis (ImmunoSource) according to the manufacturer's instructions.
Stained cell suspensions were analyzed with an EPICS XL flow cytometer (Beckman-Coulter) or a Cytomics FC 500 system (Beckman-Coulter), equipped with an argon laser and filters for adequate excitation of the chosen fluorophores. Forward scatter, side scatter, FITC-, PI and PE-Cy5 emissions were measured and a total of 10,000 cells were recorded for each sample. The respective cell populations were delimited to eliminate background signals originating from cell debris. To assess background fluorescent signals from the tested cell populations, non-stained samples were included.
After 72 hours of co-cultivation, aggregates containing 2×10^6 cells were seeded into 6-well plates containing fresh medium (5 ml total volume). Subsequently, aggregates were spiked with 5, 10 or 100 μM 3-oxo-C12 HSL (Sigma-Aldrich) (starting from a 20 mM stock solution in DMSO, stored at −20° C.). Equal volumes of DMSO, containing the respective amounts of 3-oxo-C12 HSL, were added to each well (25 μl) and a solvent control (25 μl DMSO) was included in each experiment. Six-well plates were placed at 37° C. in a 5% CO2 environment and incubated for 20 hours. […] Consequently, cell viability was further assessed based on the shift in forward scatter signal (see Table 1).

In the case of `CCCCCCCCCC(=O)CC(=O)N[C@H]1CCOC1=O` [3-oxo-C12 HSL, N-(3-oxododecanoyl)-Lhomoserine lactone], the “Percentage viability, A549-U937 3-D, A549” value (shortened to “Percentage viability”) (5 μM) is reported as 90.3 ± 0.01%, the “Percentage viability” value (10 μM) is reported as 92.6 ± 0.00% and the “Percentage viability” value (100 μM) is reported as 84.3 ± 0.00%.

Source: patent US20130344501A1, “METHODS FOR PRODUCING THREE-DIMENSIONAL PHYSIOLOGICALLY RELEVANT IMMUNE TISSUE SYSTEMS UNDER LOW FLUID SHEAR CONDITIONS” (priority 2010, published 2013)
